Patent US12435059B2, “AMP-activated protein kinase inhibitors and methods of making and using the same” (The Regents of the University of Colorado, priority 2019, dated 2025)
Where two headings read alike, the source gives them in different places.

Legend:
Assay in all cases: biochemical
Assay type in all cases: binding
[1] = target: 468 kinases (Homo sapiens, UniProt Q99640); conditions: PKMYT1; read-out: % Inhibition @ 100 nM
[2] = target: 468 kinases (Homo sapiens, UniProt P51956); conditions: NEK3; read-out: % Inhibition @ 100 nM
[3] = target: 468 kinases (Homo sapiens, UniProt Q96GD4); conditions: AURKB; read-out: % Inhibition @ 100 nM
[4] = target: 468 kinases (Homo sapiens, UniProt P48729); conditions: CSNK1A1; read-out: % Inhibition @ 100 nM
[5] = target: 468 kinases (Homo sapiens, UniProt P54756); conditions: EPHA5; read-out: % Inhibition @ 100 nM
[6] = target: 468 kinases (Homo sapiens, UniProt P53778); conditions: p38-gamma; read-out: % Inhibition @ 100 nM
[7] = target: 468 kinases (Homo sapiens, UniProt Q9H422); conditions: HIPK3; read-out: % Inhibition @ 100 nM
[8] = target: 468 kinases (Homo sapiens, UniProt Q13627); conditions: DYRK1A; read-out: % Inhibition @ 100 nM
[9] = target: 468 kinases (Homo sapiens, UniProt Q8IYT8); conditions: ULK2; read-out: % Inhibition @ 100 nM
[10] = target: 468 kinases (Homo sapiens, UniProt Q32MK0); conditions: MLCK; read-out: % Inhibition @ 100 nM
[11] = target: 468 kinases (Homo sapiens, UniProt Q9BX84); conditions: TRPM6; read-out: % Inhibition @ 100 nM
[12] = target: 468 kinases (Homo sapiens, UniProt P29597); conditions: read-out: % Inhibition @ 100 nM
[13] = target: 468 kinases (Homo sapiens, UniProt O60331); conditions: PIPSK1C; read-out: % Inhibition @ 100 nM
[14] = target: 468 kinases (Homo sapiens, UniProt P35590); conditions: TIEI; read-out: % Inhibition @ 100 nM
[15] = target: 468 kinases (Homo sapiens, UniProt P42684); conditions: ABL2; read-out: % Inhibition @ 100 nM
[16] = target: 468 kinases (Homo sapiens, UniProt Q9UPZ9); conditions: ICK; read-out: % Inhibition @ 100 nM
[17] = target: 468 kinases (Homo sapiens, UniProt P00519, F317L); conditions: read-out: % Inhibition @ 100 nM
[18] = target: 468 kinases (Homo sapiens, UniProt Q9HBY8); conditions: SGK2; read-out: % Inhibition @ 100 nM
[19] = target: 468 kinases (Homo sapiens, UniProt Q9Y2I7); conditions: PIKFYVE; read-out: % Inhibition @ 100 nM
[20] = target: 468 kinases (Homo sapiens, UniProt Q96Q40); conditions: PFTAIRE2; read-out: % Inhibition @ 100 nM
[21] = target: 468 kinases (Homo sapiens, UniProt Q9H0K1); conditions: SIK2; read-out: % Inhibition @ 100 nM
[22] = target: 468 kinases (Homo sapiens, UniProt Q13464); conditions: ROCK1; read-out: % Inhibition @ 100 nM
[23] = target: 468 kinases (Homo sapiens, UniProt O95382); conditions: ASK2; read-out: % Inhibition @ 100 nM
[24] = target: 468 kinases (Homo sapiens, UniProt P17612); conditions: PKAC-alpha; read-out: % Inhibition @ 100 nM
[25] = target: 468 kinases (Homo sapiens, UniProt P42336, H1047Y); conditions: PIK3CA(H1047Y); read-out: % Inhibition @ 100 nM
[26] = target: 468 kinases (Homo sapiens, UniProt P07949, V804L); conditions: RET(V804L); read-out: % Inhibition @ 100 nM
[27] = target: 468 kinases (Homo sapiens, UniProt Q86YV6); conditions: MYLK4; read-out: % Inhibition @ 100 nM
[28] = target: 468 kinases (Homo sapiens, UniProt Q86V86); conditions: PIM3; read-out: % Inhibition @ 100 nM
[29] = target: 468 kinases (Homo sapiens, UniProt P42336, Q546K); conditions: PIK3CA(Q546K); read-out: % Inhibition @ 100 nM
[30] = target: 468 kinases (Homo sapiens, UniProt Q8NG66); conditions: NEK11; read-out: % Inhibition @ 100 nM
[31] = target: 468 kinases (Homo sapiens, UniProt Q6XUX3); conditions: RIPK5; read-out: % Inhibition @ 100 nM
[32] = target: 468 kinases (Homo sapiens, UniProt P36888, R834Q); conditions: FLT3(R834Q); read-out: % Inhibition @ 100 nM

Structure (SMILES) | inhibition at 0.1 µM [1] [%] | inhibition at 0.1 µM [2] [%] | inhibition at 0.1 µM [3] [%] | inhibition at 0.1 µM [4] [%] | inhibition at 0.1 µM [5] [%] | inhibition at 0.1 µM [6] [%] | inhibition at 0.1 µM [7] [%] | inhibition at 0.1 µM [8] [%] | inhibition at 0.1 µM [9] [%] | inhibition at 0.1 µM [10] [%] | inhibition at 0.1 µM [11] [%] | inhibition at 0.1 µM ([12]; TYK2(JH1domain-catalytic)) [%] | inhibition at 0.1 µM ([12]; TYK2(JH2domain-pseudokinase)) [%] | inhibition at 0.1 µM [13] [%] | inhibition at 0.1 µM [14] [%] | inhibition at 0.1 µM [15] [%] | inhibition at 0.1 µM [16] [%] | inhibition at 0.1 µM ([17]; ABL1 (F317L)-phosphorylated) [%] | inhibition at 0.1 µM [18] [%] | inhibition at 0.1 µM [19] [%] | other results
CCN(CC)CCNC(=O)c1c(C)[nH]c(/C=C2\C(=O)Nc3ccc(CCO)cc32)c1C [Compound No. 10, (Z)—N-(2-(Diethylamino)ethyl)-5-((5-(2-hydroxyethyl)-2-oxoindolin-3-ylidene)methyl)-2,4-dimethyl-1H-pyrrole-3-carboxamide] | 19 | 50 | 20 | 14 | 0 | 14 | 21 | 74 | 71 | 0 | 0 | 1 | 0 | 32 | 2 | 0 | 0 | 22 | 0 | 6 | inhibition at 0.1 µM ([17]; ABL1 (F317L)-nonphosphorylated): 6%; inhibition at 0.1 µM [20]: 0%; inhibition at 0.1 µM [21]: 0%; inhibition at 0.1 µM [22]: 4%; inhibition at 0.1 µM [23]: 0%; inhibition at 0.1 µM [24]: 0%; inhibition at 0.1 µM [25]: 4%; inhibition at 0.1 µM [26]: 91.1%; inhibition at 0.1 µM [27]: 32%; inhibition at 0.1 µM [28]: 8%; inhibition at 0.1 µM [29]: 0%; inhibition at 0.1 µM [30]: 0%; inhibition at 0.1 µM [31]: 0%; inhibition at 0.1 µM [32]: 56%
CCN(CC)CCNC(=O)c1c(C)[nH]c(/C=C2\C(=O)Nc3ccc(CCC(N)=O)cc32)c1C [Compound No. 16, (Z)-5-((5-(3-Amino-3-oxopropyl)-2-oxoindolin-3-ylidene)methyl)-N-(2-(diethylamino)ethyl)-2,4-dimethyl-1H-pyrrole-3-carboxamide] | 18 | 45 | 34 | 27 | 9 | 15 | 95.3 | 93.3 | 82 | 0 | 29 | 33 | 39 | 15 | 14 | 3 | 88 | 20 | 14 | 27 | inhibition at 0.1 µM [20]: 0%; inhibition at 0.1 µM [21]: 15%; inhibition at 0.1 µM [22]: 53%; inhibition at 0.1 µM [23]: 47%; inhibition at 0.1 µM [24]: 0%; inhibition at 0.1 µM [25]: 28%; inhibition at 0.1 µM [26]: 86%; inhibition at 0.1 µM [27]: 24%; inhibition at 0.1 µM [28]: 0%; inhibition at 0.1 µM [29]: 3%; inhibition at 0.1 µM [30]: 36%; inhibition at 0.1 µM [31]: 3%; inhibition at 0.1 µM [32]: 55%
